Holding throughout (assay): relative viability (nuclei count vs DMSO), 5 days (fraction); higher = more cells survive
Compound in experiment [1]: CO[C@@H]1[C@H](N(C)C(=O)c2ccccc2)C[C@H]2O[C@]1(C)n1c3ccccc3c3c4c(c5c6ccccc6n2c5c31)C(=O)NC4 [Midostaurin] + Cc1nc(NC(=O)N2CCC[C@H]2C(N)=O)sc1-c1ccnc(C(C)(C)C(F)(F)F)c1 [Alpelisib] (partner 2 µM)
An outline of the steps: (§1)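 Values are medians from duplicate plates. Each reflects relative viability, defined as the nuclei count of treated wells over that of vehicle wells. Lung cancer cell lines in 1536-well plates were pin-tool dosed one day after seeding with one drug alone or with a fixed anchor-drug dose plus five library-drug doses (not always all listed) in √10 steps, then fixed, stained and imaged at 4× after 5 days.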

Compound in experiment [2]: CO[C@@H]1[C@H](N(C)C(=O)c2ccccc2)C[C@H]2O[C@]1(C)n1c3ccccc3c3c4c(c5c6ccccc6n2c5c31)C(=O)NC4 [Midostaurin] + N=C(N)NC(=N)NCCc1ccccc1 [Phenformin] (partner 250 µM)
The method, boiled down: as §1

Compound in experiment [3]: CO[C@@H]1[C@H](N(C)C(=O)c2ccccc2)C[C@H]2O[C@]1(C)n1c3ccccc3c3c4c(c5c6ccccc6n2c5c31)C(=O)NC4 [Midostaurin] + Nc1ncn([C@H]2C[C@H](O)[C@@H](CO)O2)c(=O)n1 [Decitabine] (partner 2 µM)
The method, boiled down:
as §1

Compound in experiment [4]: COc1cc(-c2nn([C@H]3CC[C@H](N4CCN(C(C)=O)CC4)CC3)c3ncnc(N)c23)ccc1NC(=O)c1cc2ccccc2n1C + CS(=O)(=O)CCNCc1ccc(-c2ccc3ncnc(Nc4ccc(OCc5cccc(F)c5)c(Cl)c4)c3c2)o1 [Lapatinib] (partner 2 µM)
An outline of the steps:
as §1

Compound in experiment [5]: COc1cc(-c2nn([C@H]3CC[C@H](N4CCN(C(C)=O)CC4)CC3)c3ncnc(N)c23)ccc1NC(=O)c1cc2ccccc2n1C + Cc1nc(NC(=O)N2CCC[C@H]2C(N)=O)sc1-c1ccnc(C(C)(C)C(F)(F)F)c1 [Alpelisib] (partner 2 µM)
An outline of the steps:
as §1

In the case of HCC-44, the relative viability in experiment [1] (first compound 0.01 µM) was 0.831; in experiment [1] (first compound 0.03162 µM), 0.837; in experiment [1] (first compound 0.1 µM), 0.761; in experiment [1] (first compound 0.3162 µM) it was 0.607; in experiment [2] (first compound 0.01 µM), 0.157; in experiment [2] (first compound 0.03162 µM), 0.251. The relative viability in experiment [2] (first compound 0.1 µM) was 0.167; in experiment [2] (first compound 0.3162 µM), 0.201; in experiment [3] (first compound 0.01 µM) it was 0.899; in experiment [3] (first compound 0.03162 µM), 0.972; in experiment [3] (first compound 0.1 µM), 0.989; in experiment [3] (first compound 0.3162 µM), 0.997. Moreover, the relative viability in experiment [4] (first compound 0.0128 µM) came to 1.08; in experiment [4] (first compound 0.04048 µM), 1.21; in experiment [4] (first compound 0.128 µM), 0.937; in experiment [4] (first compound 1.28 µM) it was 1.23; in experiment [5] (first compound 0.0128 µM), 0.923; in experiment [5] (first compound 0.04048 µM) it was 0.763. The relative viability in experiment [5] (first compound 0.128 µM) was 0.789; in experiment [5] (first compound 1.28 µM), 0.511.

In the case of HCC-78, the relative viability in experiment [1] (first compound 0.01 µM) was 0.413; in experiment [1] (first compound 0.03162 µM) it was 0.305; in experiment [1] (first compound 0.1 µM), 0.358; in experiment [1] (first compound 0.3162 µM) it was 0.296; in experiment [2] (first compound 0.01 µM), 0.797; in experiment [2] (first compound 0.03162 µM), 0.603. Further, the relative viability in experiment [2] (first compound 0.1 µM) was 0.693; in experiment [2] (first compound 0.3162 µM), 0.462; in experiment [3] (first compound 0.01 µM), 0.651; in experiment [3] (first compound 0.03162 µM), 0.676; in experiment [3] (first compound 0.1 µM), 0.613; in experiment [3] (first compound 0.3162 µM), 0.72. Moreover, the relative viability in experiment [4] (first compound 0.0128 µM) came to 0.953; in experiment [4] (first compound 0.04048 µM), 0.85; in experiment [4] (first compound 0.128 µM), 0.673; in experiment [4] (first compound 1.28 µM), 0.585; in experiment [5] (first compound 0.0128 µM), 0.376; in experiment [5] (first compound 0.04048 µM), 0.361. The relative viability in experiment [5] (first compound 0.128 µM) amounted to 0.322; in experiment [5] (first compound 1.28 µM), 0.281.

HCC-366: the relative viability came to 0.331 in experiment [1] (first compound 0.01 µM); 0.297 in experiment [1] (first compound 0.03162 µM); 0.318 in experiment [1] (first compound 0.1 µM); 0.323 in experiment [1] (first compound 0.3162 µM); 0.597 in experiment [2] (first compound 0.01 µM); 0.528 in experiment [2] (first compound 0.03162 µM). Also, the relative viability in experiment [2] (first compound 0.1 µM) worked out at 0.689; in experiment [2] (first compound 0.3162 µM), 0.615; in experiment [3] (first compound 0.01 µM) it was 0.383; in experiment [3] (first compound 0.03162 µM) it was 0.364; in experiment [3] (first compound 0.1 µM), 0.325; in experiment [3] (first compound 0.3162 µM) it was 0.298. The relative viability in experiment [4] (first compound 0.0128 µM) was 1.09; in experiment [4] (first compound 0.04048 µM) it was 0.998; in experiment [4] (first compound 0.128 µM) it was 1.07; in experiment [4] (first compound 1.28 µM), 0.66; in experiment [5] (first compound 0.0128 µM), 0.444; in experiment [5] (first compound 0.04048 µM), 0.374. The results for the relative viability in experiment [5] (first compound 0.128 µM) and in experiment [5] (first compound 1.28 µM) were 0.418 and 0.259, respectively.

For HCC-827, the relative viability is 0.984 in experiment [1] (first compound 0.01 µM); 1 in experiment [1] (first compound 0.03162 µM); 0.948 in experiment [1] (first compound 0.1 µM); 1.02 in experiment [1] (first compound 0.3162 µM); 0.364 in experiment [2] (first compound 0.01 µM); 0.369 in experiment [2] (first compound 0.03162 µM). The relative viability in experiment [2] (first compound 0.1 µM) came to 0.449; in experiment [2] (first compound 0.3162 µM) it was 0.422; in experiment [3] (first compound 0.01 µM) it was 0.303; in experiment [3] (first compound 0.03162 µM), 0.318; in experiment [3] (first compound 0.1 µM), 0.356; in experiment [3] (first compound 0.3162 µM) it was 0.349. The relative viability in experiment [4] (first compound 0.0128 µM) was determined as 0.192; in experiment [4] (first compound 0.04048 µM), 0.172; in experiment [4] (first compound 0.128 µM) it was 0.182; in experiment [4] (first compound 1.28 µM) it was 0.204; in experiment [5] (first compound 0.0128 µM) it was 1.11; in experiment [5] (first compound 0.04048 µM) it was 0.961. For the same cell line, the relative viability was found to be 0.942 in experiment [5] (first compound 0.128 µM) and 0.726 in experiment [5] (first compound 1.28 µM).

As to HOP-62, the relative viability was 0.957 in experiment [1] (first compound 0.01 µM); 0.636 in experiment [1] (first compound 0.03162 µM); 0.913 in experiment [1] (first compound 0.1 µM); 1.32 in experiment [1] (first compound 0.3162 µM); 0.586 in experiment [2] (first compound 0.01 µM); 0.66 in experiment [2] (first compound 0.03162 µM). In addition, the relative viability in experiment [2] (first compound 0.1 µM) is 0.69; in experiment [2] (first compound 0.3162 µM), 0.646; in experiment [3] (first compound 0.01 µM) it was 0.203; in experiment [3] (first compound 0.03162 µM) it was 0.25; in experiment [3] (first compound 0.1 µM) it was 0.246; in experiment [3] (first compound 0.3162 µM) it was 0.227. For the same cell line, the relative viability was determined as 1.09 in experiment [4] (first compound 0.0128 µM); 0.891 in experiment [4] (first compound 0.04048 µM); 0.865 in experiment [4] (first compound 0.128 µM); 1.03 in experiment [4] (first compound 1.28 µM); 1.04 in experiment [5] (first compound 0.0128 µM); 0.907 in experiment [5] (first compound 0.04048 µM). For the same cell line, the relative viability in experiment [5] (first compound 0.128 µM) was found to be 0.952; in experiment [5] (first compound 1.28 µM), 0.774.

Turning to IA-LM, the relative viability in experiment [1] (first compound 0.01 µM) turned out to be 0.853; in experiment [1] (first compound 0.1 µM), 0.821; in experiment [1] (first compound 0.3162 µM), 0.891; in experiment [4] (first compound 0.0128 µM), 0.83; in experiment [4] (first compound 0.04048 µM) it was 1.16; in experiment [4] (first compound 0.128 µM), 0.79. The relative viability in experiment [4] (first compound 1.28 µM) turned out to be 1.15; in experiment [5] (first compound 0.0128 µM) it was 0.838; in experiment [5] (first compound 0.04048 µM), 0.803; in experiment [5] (first compound 0.128 µM) it was 0.783; in experiment [5] (first compound 1.28 µM), 0.84.

For LC-2-ad, the relative viability is 0.82 in experiment [1] (first compound 0.01 µM); 0.78 in experiment [1] (first compound 0.03162 µM); 0.878 in experiment [1] (first compound 0.1 µM); 0.654 in experiment [1] (first compound 0.3162 µM); 0.542 in experiment [2] (first compound 0.01 µM); 0.562 in experiment [2] (first compound 0.03162 µM). Moreover, the relative viability in experiment [2] (first compound 0.1 µM) came out at 0.632; in experiment [2] (first compound 0.3162 µM) it was 0.586; in experiment [3] (first compound 0.01 µM) it was 0.672; in experiment [3] (first compound 0.03162 µM), 0.751; in experiment [3] (first compound 0.1 µM), 0.699; in experiment [3] (first compound 0.3162 µM) it was 0.763. Moreover, the relative viability in experiment [4] (first compound 0.0128 µM) stood at 0.988; in experiment [4] (first compound 0.04048 µM), 0.817; in experiment [4] (first compound 0.128 µM), 0.847; in experiment [4] (first compound 1.28 µM) it was 0.961; in experiment [5] (first compound 0.0128 µM), 1.01; in experiment [5] (first compound 0.04048 µM), 0.931. Besides, the relative viability turned out to be 0.872 in experiment [5] (first compound 0.128 µM) and 0.699 in experiment [5] (first compound 1.28 µM).

For the cell line LCLC-97TM1, the relative viability in experiment [1] (first compound 0.01 µM) came to 0.251; in experiment [1] (first compound 0.1 µM), 0.185; in experiment [1] (first compound 0.3162 µM), 0.211; in experiment [2] (first compound 0.01 µM) it was 0.434; in experiment [2] (first compound 0.03162 µM) it was 0.324; in experiment [2] (first compound 0.1 µM) it was 0.38. For the same cell line, the relative viability was found to be 0.415 in experiment [2] (first compound 0.3162 µM); 0.215 in experiment [3] (first compound 0.01 µM); 0.239 in experiment [3] (first compound 0.03162 µM); 0.25 in experiment [3] (first compound 0.1 µM); 0.242 in experiment [3] (first compound 0.3162 µM); 0.922 in experiment [4] (first compound 0.0128 µM). The relative viability in experiment [4] (first compound 0.04048 µM) came out at 0.553; in experiment [4] (first compound 0.128 µM), 0.9; in experiment [4] (first compound 1.28 µM), 1.08; in experiment [5] (first compound 0.0128 µM), 0.252; in experiment [5] (first compound 0.04048 µM) it was 0.203; in experiment [5] (first compound 0.128 µM) it was 0.226. In addition, in experiment [5] (first compound 1.28 µM), the relative viability was 0.319.
